Test results published in ChEMBL document CHEMBL1150694, “Jatrophane diterpenoids from Euphorbia mongolica as modulators of the multidrug resistance of L5128 mouse lymphoma cells” (J Nat Prod, 2003).

Legend:
Format in all cases: cell-based
[1] = target: T1, ATP-dependent translocase ABCB1 (Homo sapiens, UniProt P08183); assay: Inhibition of human MDR1 expressed in mouse L5178 cells assessed as fluorescence activity at 23 uM by rhodamine 123 exclusion test; conditions: l5178, 23 µM
[2] = target: T1, ATP-dependent translocase ABCB1; assay: Inhibition of human MDR1 expressed in mouse L5178 cells assessed as fluorescence activity ratio at 112 uM by rhodamine 123 exclusion test relative to wild type mouse L5178 cells; conditions: l5178, 112 µM
[3] = target: T1, ATP-dependent translocase ABCB1; assay: Inhibition of human MDR1 expressed in mouse L5178 cells assessed as fluorescence activity at 11.2 uM by rhodamine 123 exclusion test; conditions: l5178, 11.2 µM
[4] = target: T1, ATP-dependent translocase ABCB1; assay: Inhibition of human MDR1 expressed in mouse L5178 cells assessed as fluorescence activity at 112 uM by rhodamine 123 exclusion test; conditions: l5178, 112 µM
[5] = target: T1, ATP-dependent translocase ABCB1; assay: Inhibition of human MDR1 expressed in mouse L5178 cells assessed as fluorescence activity ratio at 11.2 uM by rhodamine 123 exclusion test relative to wild type mouse L5178 cells; conditions: l5178, 11.2 µM

T1 sequence (P08183 whole entry): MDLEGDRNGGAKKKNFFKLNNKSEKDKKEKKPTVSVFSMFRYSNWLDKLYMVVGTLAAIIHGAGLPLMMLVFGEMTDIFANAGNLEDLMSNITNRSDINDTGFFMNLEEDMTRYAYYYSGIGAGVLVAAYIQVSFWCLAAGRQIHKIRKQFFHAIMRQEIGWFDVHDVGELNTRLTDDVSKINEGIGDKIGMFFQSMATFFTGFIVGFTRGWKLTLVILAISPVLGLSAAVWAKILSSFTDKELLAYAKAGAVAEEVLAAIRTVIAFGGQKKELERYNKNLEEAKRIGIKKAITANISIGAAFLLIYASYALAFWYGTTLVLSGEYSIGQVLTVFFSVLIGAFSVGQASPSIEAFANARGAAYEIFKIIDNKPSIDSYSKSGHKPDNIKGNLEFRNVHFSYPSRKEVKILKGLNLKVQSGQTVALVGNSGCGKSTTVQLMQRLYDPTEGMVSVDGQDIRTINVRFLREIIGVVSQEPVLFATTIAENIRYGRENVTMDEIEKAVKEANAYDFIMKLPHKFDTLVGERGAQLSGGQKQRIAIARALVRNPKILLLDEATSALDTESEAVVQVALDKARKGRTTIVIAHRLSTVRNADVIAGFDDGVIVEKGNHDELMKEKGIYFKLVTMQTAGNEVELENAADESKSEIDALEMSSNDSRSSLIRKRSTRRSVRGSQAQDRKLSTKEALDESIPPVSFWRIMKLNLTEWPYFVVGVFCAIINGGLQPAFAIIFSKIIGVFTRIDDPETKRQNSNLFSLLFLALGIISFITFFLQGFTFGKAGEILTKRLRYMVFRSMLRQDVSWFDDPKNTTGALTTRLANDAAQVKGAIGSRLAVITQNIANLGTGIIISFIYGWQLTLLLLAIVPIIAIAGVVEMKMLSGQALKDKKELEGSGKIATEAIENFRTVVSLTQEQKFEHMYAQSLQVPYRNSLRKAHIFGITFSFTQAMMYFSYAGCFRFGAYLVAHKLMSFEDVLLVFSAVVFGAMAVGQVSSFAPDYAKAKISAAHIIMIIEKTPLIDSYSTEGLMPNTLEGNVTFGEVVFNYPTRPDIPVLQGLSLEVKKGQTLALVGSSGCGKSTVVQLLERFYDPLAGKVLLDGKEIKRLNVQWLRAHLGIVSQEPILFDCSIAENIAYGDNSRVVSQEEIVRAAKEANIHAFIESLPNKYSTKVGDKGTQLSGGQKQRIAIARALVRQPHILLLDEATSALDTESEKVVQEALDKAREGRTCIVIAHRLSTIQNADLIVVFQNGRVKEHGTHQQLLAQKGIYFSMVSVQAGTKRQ

**Q.** How did the Flu intensity [1] turn out when `COc1ccc(CCN(C)CCCC(C#N)(c2ccc(OC)c(OC)c2)C(C)C)cc1OC` (stereo not drawn) was run?
**A.** 158.9

**Q.** With `C=C1[C@H](OC(C)=O)[C@@H](OC(C)=O)[C@@H](OC(C)=O)C(C)(C)/C=C/[C@H](C)C(=O)[C@@]2(OC(C)=O)C[C@H](C)[C@H](OC(C)=O)[C@@H]2[C@H]1OC(=O)c1ccccc1` (relative stereo) as the compound, how does the Ratio [2] read?
**A.** 29.29

**Q.** What about the Flu intensity [3] of the same compound?
**A.** 33.71

**Q.** And the Flu intensity [4]?
**A.** 354.21

**Q.** And the Ratio [5]?
**A.** 2.79

**Q.** For `C=C1[C@H](OC(C)=O)[C@@H](OC(C)=O)[C@@H](OC(C)=O)C(C)(C)/C=C/[C@H](C)C(=O)[C@@]2(OC(C)=O)C[C@H](C)[C@H](OC(=O)c3ccccc3)[C@@H]2[C@H]1OC(C)=O` (relative stereo), which Ratio [2] is on record?
**A.** 18.02

**Q.** And the Flu intensity [3]?
**A.** 31.46

**Q.** What about the Flu intensity [4] of the same compound?
**A.** 217.81

**Q.** What about the Ratio [5] of the same compound?
**A.** 2.6

**Q.** With `C=C1[C@H](OC(C)=O)[C@H]2[C@@H](OC(=O)c3ccccc3)[C@@H](C)C[C@]2(O)C(=O)[C@@H](C)/C=C/C(C)(C)C(=O)[C@H](OC(C)=O)[C@H]1OC(C)=O` (relative stereo) as the compound, how does the Ratio [2] read?
**A.** 22.92

**Q.** And the Flu intensity [3]?
**A.** 148.64

**Q.** And the Flu intensity [4]?
**A.** 277.08

**Q.** And the Ratio [5]?
**A.** 12.29
